SMILES	logP
COC(=O)C(C)c1ccc2cc(OC)ccc2c1 (centres undefined)	4.6
COc1ccc2cc(C(C)C(=O)OCC(C)O)ccc2c1 (centres undefined)	3.74
CCCCCCCOC(=O)C(C)c1ccc2cc(OC)ccc2c1 (centres undefined)	7.21
COc1ccc2cc(C(C)C(=O)OC3CCCCC3=O)ccc2c1 (centres undefined)	4.96
COc1ccc2cc(C(C)C(=O)OC3COC4C(O)COC34)ccc2c1 (centres undefined)	3.14
COc1ccc2cc(C(C)C(=O)OCC(C)=O)ccc2c1 (centres undefined)	4.06
COc1ccc2cc(C(C)C(=O)Oc3ccccc3)ccc2c1 (centres undefined)	5.17
COc1ccc2cc(C(C)C(=O)OC3CCCCC3O)ccc2c1 (centres undefined)	4.71
COc1ccc2cc(C(C)C(=O)OCCOCCO)ccc2c1 (centres undefined)	3.79
CCCCCCCCOC(=O)C(C)c1ccc2cc(OC)ccc2c1 (centres undefined)	7.66
COc1ccc2cc(C(C)C(=O)OC(C)C)ccc2c1 (centres undefined)	4.98
COc1ccc2cc(C(C)C(=O)OCCCCCCO)ccc2c1 (centres undefined)	4.74
COc1ccc2cc(C(C)C(=O)OCC=C(C)CCC=C(C)C)ccc2c1 (centres undefined)	7.77
COc1ccc2cc(C(C)C(=O)OC3CCCCC3)ccc2c1 (centres undefined)	5.82
CC=CC=CCOC(=O)C(C)c1ccc2cc(OC)ccc2c1 (centres undefined)	6.31

Results, then the compound that gave them:

logP	SMILES
4.78	CCOC(=O)C(C)c1ccc2cc(OC)ccc2c1 (centres undefined)
6.54	CCCCCCOC(=O)C(C)c1ccc2cc(OC)ccc2c1 (centres undefined)
6.02	CCCCCOC(=O)C(C)c1ccc2cc(OC)ccc2c1 (centres undefined)
3.05	COc1ccc2cc(C(C)C(=O)OCCO)ccc2c1 (centres undefined)
5.81	CCCCOC(=O)C(C)c1ccc2cc(OC)ccc2c1 (centres undefined)
5.91	CCC#CCCOC(=O)C(C)c1ccc2cc(OC)ccc2c1 (centres undefined)
3.73	COc1ccc2cc(C(C)C(=O)OCCCO)ccc2c1 (centres undefined)
5.34	CCCOC(=O)C(C)c1ccc2cc(OC)ccc2c1 (centres undefined)
6.21	CCC=CCCOC(=O)C(C)c1ccc2cc(OC)ccc2c1 (centres undefined)
